Assay results taken from ChEMBL document CHEMBL5226308, “Amide-Amine Replacement in Indole-2-carboxamides Yields Potent Mycobactericidal Agents with Improved Water Solubility” (ACS Med Chem Lett, 2021).
Converted amounts (≈) assume the structure as drawn. The source made the active and inactive calls. The rule behind the calls is not given here.

Assays:
[1] = system: Mycolicibacterium smegmatis; assay: Disruption of proton motive force in Mycobacterium smegmatis spheroplasts assessed as disruption of proton gradient by measuring acidification of intracellular spaces within spheroplasts at 2 to 5 uM measured after 30 mins by BCECF-AM dye based fluorescence analysis; assay type: functional, organism-based; conditions: dose 2-5 µM
[2] = system: Mycolicibacterium smegmatis; assay: Disruption of proton motive force in Mycobacterium smegmatis spheroplasts assessed as disruption of proton gradient by measuring acidification of intracellular spaces within spheroplasts at 2XMIC90 measured after 30 mins by BCECF-AM dye based fluorescence analysis; assay type: functional, organism-based
[3] = Aqueous solubility of the compound in aqueous buffer at 100 uM incubated for 24 hrs under agitation condition by UV-Vis spectrophotometric analysis; assay type: physicochemical
[4] = system: Mycobacterium tuberculosis; assay: Antimycobacterial activity against Mycobacterium tuberculosis H37Rv ATCC 27294 assessed as inhibition of bacterial growth incubated for 7 days by broth dilution method; assay type: functional; conditions: H37Rv ATCC 27294, 168 h, time 7 day
[5] = system: Mycobacterium tuberculosis; assay: Myco-bactericidal activity against Mycobacterium tuberculosis H37Rv ATCC 27294 assessed as inhibition of bacterial colony formation incubated for 7 days by agar plate method; assay type: functional; conditions: H37Rv ATCC 27294, 168 h, time 7 day, read-out: MBC99.9
[6] = Cytotoxicity against African green monkey Vero E6 cells assessed as reduction in cell viability incubated for 48 hrs by MTS assay; assay type: toxicity, cell-based, Chlorocebus sabaeus, Vero C1008
[7] = Ratio of MIC90 for antimycobacterial activity against Mycobacterium bovis BCG B33-2 harboring mmpL3 C765G/F255L mutant to MIC90 for antimycobacterial activity against wild type Mycobacterium bovis BCG ATCC 35734; assay type: functional
[8] = Ratio of MIC90 for antimycobacterial activity against Mycobacterium bovis BCG B47-1 harboring mmpL3 C1932G/F644L mutant to MIC90 for antimycobacterial activity against wild type Mycobacterium bovis BCG ATCC 35734; assay type: functional
[9] = Ratio of MIC90 for antimycobacterial activity against Mycobacterium bovis BCG B47-4 harboring mmpL3 C1932G/F644L mutant to MIC90 for antimycobacterial activity against wild type Mycobacterium bovis BCG ATCC 35734; assay type: functional
[10] = Ratio of MIC90 for antimycobacterial activity against Mycobacterium bovis BCG B47-3 harboring mmpL3 T1930C/F644L mutant to MIC90 for antimycobacterial activity against wild type Mycobacterium bovis BCG ATCC 35734; assay type: functional
[11] = Ratio of MIC90 for antimycobacterial activity against Mycobacterium bovis BCG B16-1 harboring mmpL3 C1932G/F644L mutant to MIC90 for antimycobacterial activity against wild type Mycobacterium bovis BCG ATCC 35734; assay type: functional
[12] = Effective permeability coefficient of the compound at 500 uM incubated for 18 hrs under agitation condition by PAMPA assay; assay type: ADME; conditions: for Papp at 18 h, 500 µM: PAMPA, read-out: Peff
[13] = Half life in rat liver microsomes at 200 uM incubated for 5 mins followed by NADPH addition and measured for 45 mins by LC-MS/MS analysis; assay type: ADME, Microsome; conditions: time 50 min
[14] = Selectivity index, ratio of IC50 for cytotoxicity against African green monkey Vero E6 cells to MIC50 for antimycobacterial activity against Mycobacterium tuberculosis H37Rv ATCC 27294; assay type: toxicity, cell-based, Vero C1008; conditions: read-out: Selectivity Index
[15] = Ratio of MIC90 for antimycobacterial activity against Mycobacterium bovis BCG B47-2 harboring mmpL3 G2041A/V681I mutant to MIC90 for antimycobacterial activity against wild type Mycobacterium bovis BCG ATCC 35734; assay type: functional
[16] = Selectivity index, ratio of IC50 for cytotoxicity against African green monkey Vero E6 cells to MIC50 for antimycobacterial activity against Mycobacterium bovis BCG ATCC 35734; assay type: toxicity, cell-based, Vero C1008; conditions: read-out: Selectivity Index
[17] = Ratio of MIC90 for antimycobacterial activity against Mycobacterium bovis BCG B16-2 harboring mmpL3 C1932A/F644L mutant to MIC90 for antimycobacterial activity against wild type Mycobacterium bovis BCG ATCC 35734; assay type: functional
[18] = Ratio of MIC90 for antimycobacterial activity against Mycobacterium bovis BCG B33-1 harboring mmpL3 C1932G/F644L mutant to MIC90 for antimycobacterial activity against wild type Mycobacterium bovis BCG ATCC 35734; assay type: functional

## N#CC(C#N)=NNc1cccc(Cl)c1
[1]
  Activity: Active

## O=C(NC1CCCCCCC1)c1cc2ccccc2s1
[2]
  Activity: inactive
[3]
  solubility at 24 h, 100 µM: 3.3 µM (≈ 0.949 µg/mL)

## Cc1c(CN2CCN(C)CC2)cc(-c2ccc(Cl)cc2)n1-c1ccc(Cl)cc1
[2]
  Activity: inactive

## NNC(=O)c1ccncc1 [ISONIAZID]
[4]
  MIC50: 1.8 µM (≈ 0.247 µg/mL)
  MIC90: 3.8 µM (≈ 0.521 µg/mL)
[5]
  MBC: 3.2 µM (≈ 0.439 µg/mL)

## O=C(NC1CCCCCCC1)c1cc2ccc(C(F)(F)F)cc2[nH]1
[6]
  IC50 at 48 h: > 100 µM
[7]
  Ratio: 5
[8]
  Ratio: 5
[9]
  Ratio: 5
[10]
  Ratio: 5
[11]
  Ratio: 5
[12]
  Papp at 18 h, 500 µM: 0.34 ×10⁻⁶ cm/s
[2]
  Activity: inactive
[13]
  half-life at 200 µM: 25.6 min
[14]
  selectivity ratio: > 5000
[15]
  Ratio: 5
[16]
  selectivity ratio: > 5000
[4]
  MIC50: 0.02 µM (≈ 0.00677 µg/mL)
  MIC90: 0.04 µM (≈ 0.0135 µg/mL)
[17]
  Ratio: 5
[3]
  solubility at 24 h, 100 µM: 2.2 µM (≈ 0.744 µg/mL)
[5]
  MBC: 0.08 µM (≈ 0.0271 µg/mL)
[18]
  Ratio: 5

## O=C(NC1C2CC3CC(C2)CC1C3)c1cc2cc(Cl)ccc2[nH]1 (stereo not given)
[4]
  MIC90: 0.47 µM (≈ 0.155 µg/mL)

## c1ccc2sc(CNC3CCCCCCC3)cc2c1
[7]
  Ratio: 5
[8]
  Ratio: 5
[9]
  Ratio: 5
[10]
  Ratio: 5
[11]
  Ratio: 5
[2]
  Activity: inactive
[15]
  Ratio: 5
[17]
  Ratio: 5
[3]
  solubility at 24 h, 100 µM: 73.5 µM (≈ 20.1 µg/mL)
[18]
  Ratio: 5

## CC1(C)CCC(NC(=O)c2cc3c(F)cc(F)cc3[nH]2)CC1
[4]
  MIC50: 0.023 µM (≈ 0.00705 µg/mL)

## CC(C)NCC(O)COc1cccc2ccccc12 (stereo not given) [PROPRANOLOL]
[12]
  Papp at 18 h, 500 µM: 11.9 ×10⁻⁶ cm/s

## Brc1ccc2cc(CNC3CCCCCCC3)[nH]c2c1
[12]
  Papp at 18 h, 500 µM: 13.4 ×10⁻⁶ cm/s
[3]
  solubility at 24 h, 100 µM: 35.4 µM (≈ 11.9 µg/mL)

## c1ccc2[nH]c(CNC3CCCCCCC3)cc2c1
[3]
  solubility at 24 h, 100 µM: 99.7 µM (≈ 25.6 µg/mL)

## FC(F)(F)c1ccc2cc(CNC3CCCCCCC3)[nH]c2c1
[6]
  IC50 at 48 h: 22 µM
[7]
  Ratio: 5
[8]
  Ratio: 5
[9]
  Ratio: 5
[10]
  Ratio: 5
[11]
  Ratio: 5
[12]
  Papp at 18 h, 500 µM: 13.4 ×10⁻⁶ cm/s
[2]
  Activity: inactive
[13]
  half-life at 200 µM: 8.2 min
[14]
  selectivity ratio: 366
[15]
  Ratio: 5
[16]
  selectivity ratio: 550
[4]
  MIC50: 0.05 µM (≈ 0.0162 µg/mL)
  MIC90: 0.13 µM (≈ 0.0422 µg/mL)
[17]
  Ratio: 5
[3]
  solubility at 24 h, 100 µM: 31 µM (≈ 10.1 µg/mL)
[5]
  MBC: 0.63 µM (≈ 0.204 µg/mL)
[18]
  Ratio: 5

## C[C@@H]1[C@H]2C[C@@H](C[C@H]1NC(=O)c1cc3c(F)cc(F)cc3[nH]1)C2(C)C
[4]
  MIC90: 0.012 µM (≈ 0.00399 µg/mL)

## O=C(NC1CCCCCCC1)c1cc2ccccc2[se]1
[2]
  Activity: inactive
[3]
  solubility at 24 h, 100 µM: 3.7 µM (≈ 1.24 µg/mL)

## CC1(C)CCC(NC(=O)c2cc3c(Cl)cc(Cl)cc3[nH]2)CC1
[4]
  MIC50: 0.015 µM (≈ 0.00509 µg/mL)

## O=C(NC1CCCCCCC1)c1cc2ccccc2[nH]1
[3]
  solubility at 24 h, 100 µM: 2.4 µM (≈ 0.649 µg/mL)

## Cc1cc(C)c2cc(CNC3CCCCCCC3)[nH]c2c1
[12]
  Papp at 18 h, 500 µM: 18.4 ×10⁻⁶ cm/s
[4]
  MIC90: 0.31 µM (≈ 0.0882 µg/mL)
[3]
  solubility at 24 h, 100 µM: 70.1 µM (≈ 19.9 µg/mL)

## O=C(NC1CCCCCCC1)c1cc2ccc(Br)cc2[nH]1
[12]
  Papp at 18 h, 500 µM: 8.1 ×10⁻⁶ cm/s
[3]
  solubility at 24 h, 100 µM: 1.6 µM (≈ 0.559 µg/mL)

## Cc1cc(C)c2cc(C(=O)NC3CCCCCCC3)[nH]c2c1
[12]; pampa, 18 h, 500 µM
  Peff: 14 10^-6 cm/s
[4]
  MIC90: 0.013 µM (≈ 0.00388 µg/mL)
[3]
  solubility at 24 h, 100 µM: 5.7 µM (≈ 1.7 µg/mL)

## O=C(NC1CCC2(CCCCC2)CC1)c1cc2c(F)cc(F)cc2[nH]1
[4]
  MIC90: 0.003 µM (≈ 0.00104 µg/mL)

## c1ccc2[se]c(CNC3CCCCCCC3)cc2c1
[2]
  Activity: inactive
[3]
  solubility at 24 h, 100 µM: 77.8 µM (≈ 24.9 µg/mL)
